Experimental data as given in US12252492B2, “Substituted fused pyrrolo-diazepinones and uses thereof” (Northwestern University, priority 2018, dated 2025).

Test system: A549/ATCC
Test: NCI60 one-dose screen, A549
Format: cell-based, human
Settings: A549 cells; single concentration of 10 μM; NCI60 panel
Experimental: Anti-cancer activity screening of all compounds was performed by the NCI Developmental Therapeutics Program (DTP) through their NCI60 screening initiative. Assay details can be found at the website dtp.cancer.gov/discovery_development/nci-60/methodology.htm. Information from this website is reproduced here for convenience.
As of early 2007 all compounds submitted to the NCI 60 Cell screen are tested initially at a single high dose (10^-5 M) in the full NCI 60 cell panel. Only compounds which satisfy pre-determined threshold inhibition criteria in a minimum number of cell lines will progress to the full 5-dose assay. The threshold inhibition criteria for progression to the 5-dose screen was selected to efficiently capture compounds with anti-proliferative activity based on careful analysis of historical DTP screening data. The threshold criteria may be updated as additional data becomes available.
The One-dose data will be reported as a mean graph of the percent growth of treated cells and will be similar in appearance to mean graphs from the 5-dose assay. The number reported for the One-dose assay is growth relative to the no-drug control, and relative to the time zero number of cells. This allows detection of both growth inhibition (values between 0 and 100) and lethality (values less than 0). This is the same as for the 5-dose assay, described below. For example, a value of 100 means no growth inhibition. A value of 40 would mean 60% growth inhibition. A value of 0 means no net growth over the course of the experiment. A value of −40 would mean 40% lethality. A value of −100 means all cells are dead. Information from the One-dose mean graph is available for COMPARE analysis.
The human tumor cell lines of the cancer screening panel are grown in RPMI 1640 medium containing 5% fetal bovine serum and 2 mM L-glutamine. For a typical screening experiment, cells are inoculated into 96 well microtiter plates in 100 μL at plating densities ranging from 5,000 to 40,000 cells/well depending on the doubling time of individual cell lines. After cell inoculation, the microtiter plates are incubated at 37° C., 5% CO2, 95% air and 100% relative humidity for 24 h prior to addition of experimental drugs.
After 24 h, two plates of each cell line are fixed in situ with TCA, to represent a measurement of the cell population for each cell line at the time of drug addition (Tz). Experimental drugs are solubilized in dimethyl sulfoxide at 400-fold the desired final maximum test concentration and stored frozen prior to use. At the time of drug addition, an aliquot of frozen concentrate is thawed and diluted to twice the desired final maximum test concentration with complete medium containing 50 μg/ml gentamicin. Additional four, 10-fold or ½ log serial dilutions are made to provide a total of five drug concentrations plus control. Aliquots of 100 μl of these different drug dilutions are added to the appropriate microtiter wells already containing 100 μl of medium, resulting in the required final drug concentrations.
Following drug addition, the plates are incubated for an additional 48 h at 37° C., 5% CO2, 95% air, and 100% relative humidity. For adherent cells, the assay is terminated by the addition of cold TCA. Cells are fixed in situ by the gentle addition of 50 μl of cold 50% (w/v) TCA (final concentration, 10% TCA) and incubated for 60 minutes at 4° C. The supernatant is discarded, and the plates are washed five times with tap water and air dried. Sulforhodamine B (SRB) solution (100 μl) at 0.4% (w/v) in 1% acetic acid is added to each well, and plates are incubated for 10 minutes at room temperature. After staining, unbound dye is removed by washing five times with 1% acetic acid and the plates are air dried. Bound stain is subsequently solubilized with 10 mM trizma base, and the absorbance is read on an automated plate reader at a wavelength of 515 nm. […]

Compound: CC1(C)C2=C(C(=O)N1Cc1ccccc1)C(c1ccco1)N(C(=O)C1CCC1)CCN2 (stereo not shown) [Compound 8m, 7-benzyl-4-(cyclobutanecarbonyl)-5-(furan-2-yl)-8,8-dimethyl-2,3,4,5,7,8-hexahydropyrrolo[3,4-e][1,4]diazepin-6(1H)-one]
- reduction of cell growth of A549 non-small cell lung cancer cells: 24%

Compound: CC(C)C1C2=C(NCCN1C(=O)c1cccnc1)C(C)(C)N(Cc1ccccc1)C2=O (stereo not shown) [Compound 8f]
- reduction of cell growth of A549 non-small cell lung cancer cells: 32%

Compound: CC(C)C1C2=C(NCCN1C(=O)C1CCCC1)C(C)(C)N(Cc1ccccc1)C2=O (stereo not shown) [Compound 8c]
- reduction of cell growth of A549 non-small cell lung cancer cells: 24%

Compound: CC(C)C1C2=C(NCCN1C(=O)c1ccncc1)C(C)(C)N(Cc1ccccc1)C2=O (stereo not shown) [Compound 8e]
- reduction of cell growth of A549 non-small cell lung cancer cells: < 5%
